Measurements: patent US20210261539A1, “COMPOUND HAVING BET INHIBITORY ACTIVITY AND PREPARATION METHOD AND USE THEREFOR” (Shanghai Haihe Pharmaceutical Co., Ltd., priority 2018, published 2021)

biological target: T1, BRD4 BD1 (Homo sapiens, UniProt O60885); test: HTRF in vitro enzyme activity assay, inhibition of BRD4 BD1 binding to acetylated H4 peptide; details: IC50 values of the compounds against BRD4 BD1 binding; class symbols A/B/C
T1 construct: Protein BRD4 BD1 used in the assay was purchased from Active Motif (cat. 31380); purchased Active Motif 31380
Procedure: Effect Examples: In Vitro Enzyme Activity Assay
Half inhibitory activity (IC50) of the compounds of the invention against the bromodomain protein BRD4 BD1 was determined in the present Examples.
The compounds of the invention were tested for inhibitory activity against BRD4 BD1 with Homogeneous Time-Resolved Fluorescence (HTRF).
2. Reagents, Consumable Materials and Instruments:
Protein BRD4 BD1 used in the assay was purchased from Active Motif (cat. 31380); streptavidin XL-665 (#610SAXLA) and EPIgeneous Binding Domain Kit A (#62BDAPEG) were both purchased from Cisbio Bioassays; [Lys(5,8,12,16)Ac] H4(1-21)-biotin (#64989), [Lys(5,8,12,16)Ac]H4(1-25) were available from Anaspec; OTX015 and ABBV-075 were purchased from Selleckchem Co. The 384-well ProxiPlate (#6008280) was purchased from Perkinelmer Co. The Laboratory microplate reader (Envision 2104) was available from PerkinElmer Co. The water used in the assay was Millipore-Q pure water.
3. Formulation of the Compound
10 mM DMSO stock solution of the test compound was diluted to 1 mM in DMSO, and then diluted 10-fold in Binding Domain dilution buffer (purchased from Cisbio Bioassays) for use (DMSO concentration in the final system was 0.1%), including 5 concentrations in 1:5 gradient.
4. Assay Protocol: 1 Batch, 2 Repeats
1) 5 μL of test compound was transferred to 45 μL Binding Domain dilution buffer.
2) 2 μL of 1× compound (4 μL Binding Domain dilution buffer: positive control; 6 μL enzyme buffer (purchased from Cisbio Bioassays): negative control) was transferred to a reaction plate.
3) 4 μL of 5×BRD 4(1) was added to the reaction plate (30 nM in the final system).
4) 4 μL of 5×[Lys(5,8,12,16)Ac] H4(1-21)-biotin was added to the reaction plate, and the plate was covered with a film and incubated at 37° C. for 30 min.
5) A detection mixture of SA-XL665 (2×) and anti-H3K9me0-Eu(K) (2×) was prepared in detection buffer (purchased from Cisbio Bioassays).
6) 10 μL of detection mixture (2×) was added to each well, incubated at RT for 3 h. The mp value was read by microplate reader Envision with the following parameters: […]

| IC50 [nM] | Compound |
| --- | --- |
| ≤ 10 | CC1Oc2nc(N3C(=O)c4ccccc4C3c3ccc(F)cc3)ccc2N(C)C1=O (stereo not drawn) [Example A39-P1, 6-(1-(4-fluorophenyl)-3-oxoisoindolin-2-yl)-1,3-dimethyl-1H-pyrido[2,3-b][1,4]oxazin-2(3H)-one] |
| ≤ 10 | CC1C(=O)N(CC(F)(F)F)c2ccc(N3C(=O)c4ccccc4C3c3cccnc3)nc2N1C1CC1 (stereo not drawn) [Example A46-P4, 4-cyclopropyl-1-(2,2,2-trifluoroethyl)-3-methyl-6-(1-oxo-3-(pyridin-3-yl)isoindolin-2-yl)-3,4-dihydropyrido [2,3-b]pyrazin-2(1H)-one] |
| ≤ 10 | C[C@@H]1C(=O)N(C)c2cnc(N3C(=O)c4ccccc4C3c3ccc(F)nc3)nc2N1C (single isomer, unassigned) [Example A91-P2] |
| 10 to 100 | CC1C(=O)N(C)c2ccc(N3C(=O)c4ccccc4C3c3ccc(F)cc3)nc2N1C1CCCC1 (racemic) [Example A38, 4-cyclopentyl-6-(1-(4-fluorophenyl)-3-oxoisoindolin-2-yl)-1,3-dimethyl-3,4-dihydropyrido [2,3-b]pyrazin-2(1H)-one] |
| ≤ 10 | Cc1ccc(-n2c3ccccc3c(=O)n2-c2ccc3c(n2)N(C2CC2)C(C)C(=O)N3C)cn1 (single isomer, unassigned) [Example A50-P4, 6-(1-(6-methyl-pyridin-3-yl)-3-oxo-1,3-dihydro-2H-indazol-2-yl)-4-cyclopropyl-1-methyl-3-methyl-3,4-dihydropyridine [2,3-b]pyrazin-2(1H)-one] |
| ≤ 10 | CC1C(=O)N(C)c2ccc(N3C(=O)c4ccccc4C3c3ccncc3)nc2N1C1CC1 (stereo not drawn) [Example A58-P1, 4-cyclopropyl-1,3-dimethyl-6-(1-oxo-3-(pyridin-4-yl)isoindolin-2-yl)-3,4-dihydropyrido[2,3-b]pyrazin-2(1H)-one] |
| ≤ 10 | C[C@@H]1C(=O)N(C)c2cnc(N3C(=O)c4cc(F)ccc4C3c3cccnc3)nc2N1C (single isomer, unassigned) [Example A97-P1] |
| ≤ 10 | CC1Oc2nc(N3C(=O)CCC3c3ccc(F)cc3)ccc2N(C)C1=O (single isomer, unassigned) [Example A21-P1, 6-(2-(4-fluorophenyl)-5-oxopyrrolidin-1-yl)-1,3-dimethyl-1H-pyrido[2,3-B][1,4]oxazin-2(3H)-one] |
| 100 to 1000 | Cc1ccc(C2c3ccccc3C(=O)N2c2cc3c(cn2)N(C)C(=O)[C@@H](C)O3)cn1 (single isomer, unassigned) [Example A113-P1] |
| ≤ 10 | CC1C(=O)N(C)c2ccc(N3C(=O)CCC3c3ccccc3)nc2N1C1CCCC1 (single isomer, unassigned) [Example A2-P2-2, 4-cyclopentyl-1,3-dimethyl-6-(2-oxo-5-phenylpyrrolidin-1-yl)-3,4-dihydropyrido[2,3-b]pyrazin-2(1H)-one] |
| ≤ 10 | CC1C(=O)N(C)c2ccc(N3C(=O)c4sccc4C3c3cccnc3)nc2N1C1CC1 (single isomer, unassigned) [Example A72-P4, 5-(4-cyclopropyl-1,3-dimethyl-2-oxo-1,2,3,4-tetrahydropyrido[2,3-b]pyrazin-6-yl)-4-(pyridin-3-yl)-4,5-dihydro-6H-thieno[2,3-c]pyrrol-6-one] |
| 10 to 100 | CC1Oc2cc(N3C(=O)c4ccccc4C3c3cccnc3)cc(F)c2N(C)C1=O (single isomer, unassigned) [Example A107-P3, 1-methyl-3-methyl-6-(1-oxo-3-(pyridin-3-yl)isoindolin-2-yl)-8-fluoro-1H-benzo[2,3-B][1,4]oxazin-2(3H)-one] |
| ≤ 10 | CSc1cccc2c1C(=O)N(c1ccc3c(n1)N(C1CC1)C(C)C(=O)N3C)C2c1cccnc1 (single isomer, unassigned) [Example A65-P3, 4-cyclopropyl-1,3-dimethyl-6-(4-(methylthio)-3-oxo-1-(pyridin-3-yl)isoindolin-2-yl)-3,4-dihydropyrido[2,3-b]pyrazin-2(1H)-one] |
| ≤ 10 | CC(C)N1c2nc(N3C(=O)c4ccccc4C3c3cccnc3)ccc2N(C)C(=O)C1C (stereo not drawn) [Example A57-P3] |
| ≤ 10 | C[C@@H]1C(=O)N(C)c2cnc(N3C(=O)c4c(cccc4S(C)(=O)=O)C3c3cccnc3)nc2N1C (stereo partly drawn) [Example A103-P1, (7R)-5,7,8-trimethyl-2-(4-(methylsulfonyl)-3-oxo-1-(pyridin-3-yl)isoindolin-2-yl)-7,8-dihydropteridin-6(5H)-one] |
| ≤ 10 | CC1C(=O)N(C)c2ccc(N3C(=O)CCC3c3ccc(Cl)cc3)nc2N1C1CC1 (stereo not drawn) [Example A3-P3, 4-cyclopropyl-6-(2-(4-chlorophenyl)-5-oxopyrrolidin-1-yl)-1,3-dimethyl-3,4-dihydropyrido[2,3-b]pyrazin-2(1H)-one] |
| ≤ 10 | CC1C(=O)N(C)c2c(F)cc(N3C(=O)CCC3c3ccc(Cl)cc3)cc2N1C1CC1 (single isomer, unassigned) [Example A15-P1-1, 6-(2-(4-chlorophenyl)-5-oxopyrrolidin-1-yl)-4-cyclopropyl-8-fluoro-1,3-dimethyl-3,4-dihydroquinoxalin-2(1H)-one] |
| 10 to 100 | C[C@H]1Oc2nc(N3C(=O)c4c(cccc4S(C)(=O)=O)C3c3cccnc3)ccc2N(C)C1=O (single isomer, unassigned) [Example A128-P1] |
| 10 to 100 | CCN1C(=O)C(C)N(C2CCCC2)c2nc(N3C(=O)c4ccccc4C3c3ccc(F)cc3)ccc21 (racemic) [Example A24, 4-cyclopentyl-1-ethyl-6-(1-(4-fluorophenyl)-3-oxoisoindolin-2-yl)-3-methyl-3,4-dihydropyrido[2,3-b]pyrazin-2(1H)-one] |
| 100 to 1000 | C[C@H]1Oc2cc(N3C(=O)c4ccccc4C3c3cccnc3)ncc2N(C)C1=O (single isomer, unassigned) [Example A123-P2] |
| ≤ 10 | CC1C(=O)N(C)c2ccc(N3C(=O)c4ccccc4C3c3ccc(F)cc3)nc2N1C1CCCC1 (racemic) [Example A38-P2, 4-cyclopentyl-6-(1-(4-fluorophenyl)-3-oxoisoindolin-2-yl)-1,3-dimethyl-3,4-dihydropyrido [2,3-b]pyrazin-2(1H)-one] |
| ≤ 10 | CC[S+]([O-])c1cccc2c1C(=O)N(c1ccc3c(n1)N(C1CC1)C(C)C(=O)N3C)C2c1cccnc1 (stereo not drawn) [Example A73, 4-cyclopropyl-6-(4-(ethylsulfinyl)-3-oxo-1-(pyridin-3-yl)isoindolin-2-yl)-1,3-dimethyl-3,4-dihydropyrido[2,3-b]pyrazin-2(1H)-one] |
| ≤ 10 | CC1C(=O)N(C)c2ccc(N3C(=O)NCC3c3ccccc3)nc2N1C1CC1 (single isomer, unassigned) [Example A18-P4, 4-cyclopropyl-1,3-dimethyl-6-(2-oxo-5-phenylimidazolidin-1-yl)-3,4-dihydropyrido[2,3-b]pyrazin-2(1H)-one] |
| ≤ 10 | C[C@@H]1C(=O)N(C)c2ccc(N3C(=O)c4c(C(=O)NC5CC5)cccc4C3c3ccc(F)cc3)nc2N1C (stereo partly drawn) [Example A86-P3, N-cyclopropyl-1-(4-fluorophenyl)-3-oxo-2-((R)-1,3,4-trimethyl-2-oxo-1,2,3,4-tetrahydropyrido[2,3-b]pyrazin-6-yl)isoindoline-4-carboxamide] |
| ≤ 10 | CCN1C(=O)C(C)N(C2CC2)c2nc(N3C(=O)c4ccccc4C3c3cccnc3)ccc21 (stereo not drawn) [Example A49-P4, 4-cyclopropyl-1-ethyl-3-methyl-6-(1-oxo-3-(pyridin-3-yl)isoindolin-2-yl)-3,4-dihydropyrido [2,3-b]pyrazin-2-(1H)-one] |
| ≤ 10 | CC1C(=O)N(C)c2ccc(N3C(=O)c4ccccc4C3c3cccnc3)nc2N1C1CC1 (stereo not drawn) [Example A36-P3, 4-cyclopropyl-1,3-dimethyl-6-(1-oxo-3-(pyridin-3-yl)isoindolin-2-yl)-3,4-dihydropyrido [3,2-b]pyrazin-2-(1H)-one] |
| 10 to 100 | CC1C(=O)N(C)c2ccc(N3C(=O)c4ccccc4C3(O)c3ccc(F)cc3)nc2N1C1CC1 (stereo not drawn) [Compound A25, 4-cyclopropyl-6-(1-(4-fluorophenyl)-1-hydroxy-3-oxoisoindolin-2-yl)-1,3-dimethyl-3,4-dihydropyrido[2,3-b]pyrazin-2(1H)-one] |
| 10 to 100 | CC1C(=O)N(C)c2ccc(N3C(=O)c4ccccc4C3c3ccc(Cl)cc3)nc2N1Cc1ccccc1 (racemic) [Example A35, 4-benzyl-6-(1-(4-chlorophenyl)-3-oxoisoindolin-2-yl)-1,3-dimethyl-3,4-dihydropyrido [2,3-b]pyrazin-2(1H)-one] |
| ≤ 10 | C[C@H]1Oc2nc(N3C(=O)c4sccc4C3c3cccnc3)ccc2N(C)C1=O (single isomer, unassigned) [Example A115-P1] |
| ≤ 10 | CC1C(=O)N(C)c2cnc(-n3c(=O)c4ccccc4n3-c3ccc(Cl)cc3)nc2N1C1CC1 (single isomer, unassigned) [Compound A89-P3] |
